In patent US11591322B2, “Certain chemical compositions and methods of use thereof” (Algen Biotechnologies, Inc., priority 2020, dated 2023):

How the values were obtained:
HepG2 cells = assay: Cancer cell viability assay (CellTiter-Glo 2.0), HepG2; format: cell-based, Human; conditions: HepG2, 72 hours compound treatment
Description: (§1) Human liver cancer cell lines HepG2, Hep3B, Huh7, and SK-HEP-1 cells were rinsed and trypsinized with 0.25% trypsin (Corning #25-053-CI) in an incubator at 37° C. until detached. The cells were resuspended and seeded in 96-well plates to a density of 5,000 cells per well. Following cell adhesion, compounds were added to a final concentration of 2× dilution. 72 hours following compound treatment, CellTiter-Glo® 2.0 was added to the well in a 2:1 ratio of media/CellTiter-Glo® 2.0. The plates were shielded from light, shaken for 2 minutes, and incubated for 10 minutes. Luminescence was measured on a microplate reader and EC50 values were calculated using Prism 9 software.

Hep3B cells = assay: Cancer cell viability assay (CellTiter-Glo 2.0), Hep3B; format: cell-based, Human; conditions: 72 hours compound treatment
Description: as §1

CDK9/CyclinT = CDK9/CyclinT (Homo sapiens (Human), UniProt P50750); assay: CDK9 biochemical assay (Kinase-Glo Max luminescence); conditions: 30° C. for 45 minutes
Chain of CDK9/CyclinT (P50750 whole entry): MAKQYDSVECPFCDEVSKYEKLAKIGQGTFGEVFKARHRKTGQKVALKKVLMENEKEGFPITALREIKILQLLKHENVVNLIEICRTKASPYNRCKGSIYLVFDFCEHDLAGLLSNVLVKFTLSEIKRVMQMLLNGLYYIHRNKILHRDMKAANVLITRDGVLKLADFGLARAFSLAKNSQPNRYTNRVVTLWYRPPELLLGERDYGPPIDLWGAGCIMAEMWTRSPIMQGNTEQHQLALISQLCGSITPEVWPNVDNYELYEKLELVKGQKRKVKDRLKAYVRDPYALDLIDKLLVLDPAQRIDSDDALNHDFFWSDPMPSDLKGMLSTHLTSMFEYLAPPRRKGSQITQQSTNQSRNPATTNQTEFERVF
Chain of CDK9/CyclinT (O60563 whole entry partner): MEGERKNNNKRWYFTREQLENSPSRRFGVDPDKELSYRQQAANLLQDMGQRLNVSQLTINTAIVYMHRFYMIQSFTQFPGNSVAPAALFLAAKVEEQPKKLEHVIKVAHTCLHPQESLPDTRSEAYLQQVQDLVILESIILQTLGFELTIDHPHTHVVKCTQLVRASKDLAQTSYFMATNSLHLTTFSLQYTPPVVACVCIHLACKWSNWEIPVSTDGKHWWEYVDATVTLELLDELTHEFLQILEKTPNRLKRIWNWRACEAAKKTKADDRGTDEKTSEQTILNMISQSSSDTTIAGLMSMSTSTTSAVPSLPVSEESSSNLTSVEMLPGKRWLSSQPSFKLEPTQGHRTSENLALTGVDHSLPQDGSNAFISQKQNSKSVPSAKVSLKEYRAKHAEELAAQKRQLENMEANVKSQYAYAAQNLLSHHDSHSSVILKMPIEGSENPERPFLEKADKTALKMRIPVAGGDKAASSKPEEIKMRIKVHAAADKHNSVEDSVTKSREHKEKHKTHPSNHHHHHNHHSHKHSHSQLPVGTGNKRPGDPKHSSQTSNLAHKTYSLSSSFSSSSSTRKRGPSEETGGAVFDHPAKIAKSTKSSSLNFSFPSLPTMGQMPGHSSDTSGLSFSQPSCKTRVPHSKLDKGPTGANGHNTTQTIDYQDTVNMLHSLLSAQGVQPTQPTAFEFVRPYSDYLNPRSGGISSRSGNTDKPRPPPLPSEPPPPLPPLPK
Description: To each well of a 96-well plate was added 5× kinase assay buffer with 10 mM DTT (6 μL), 500 μM ATP (1 μL), 5×CDK substrate (10 μL), and water (8 μL). 5 μL of compound were added to the test and positive control groups, while 5 μL of solvent was added to the blank groups. 100 ng of CDK9/CyclinT in 20 μL water was added to the test and positive control groups, while 20 μL of 1× kinase assay buffer was added to the blank groups. The reaction mixtures were incubated at 30° C. for 45 minutes, and 50 μL of Kinase-Glo® Max was added to each well and the plates were shielded from light and incubated for 15 minutes at room temperature. Luminescence was measured on a microplate reader and IC50 values were calculated using Prism 9 software.

SK-HEP-1 cells = assay: Cancer cell viability assay (CellTiter-Glo 2.0), SK-HEP-1; format: cell-based, Human; conditions: SK-HEP-1, 72 hours compound treatment
Description: as §1

Huh7 cells = assay: Cancer cell viability assay (CellTiter-Glo 2.0), Huh7; format: cell-based, Human; conditions: Huh7, 72 hours compound treatment
Description: as §1

Structure (SMILES)	EC50 (HepG2 cells) [µM]	EC50 (Hep3B cells) [µM]	IC50 (CDK9/CyclinT) [µM]	EC50 (SK-HEP-1 cells) [µM]	EC50 (Huh7 cells) [µM]
CCOC(=O)O[C@@H](C)n1nnnc1COC[C@H](C)N[C@H]1CC[C@H](Nc2cc(-c3cccc(NCC4(C#N)CCOCC4)n3)c(Cl)cn2)CC1 [Compound 31, (S)-1-(5-(((S)-2-(((1r,4S)-4-((5′-chloro-6-(((4-cyanotetrahydro-2H-pyran-4-yl)methyl)amino)-[2,4′-bipyridin]-2′-yl)amino)cyclohexyl)amino)propoxy)methyl)-1H-tetrazol-1-yl)ethyl ethyl carbonate]	> 1	> 1	< 0.0025		
C[C@@H](Cc1nnn[nH]1)NC1CCC(Nc2cc(-c3cccc(NCC4(C#N)CCOCC4)n3)c(Cl)cn2)CC1 (stereo partly drawn) [Compound 13, 4-(((2′-(((1S,4R)-4-(((S)-1-(1H-tetrazol-5-yl)propan-2-yl)amino)cyclohexyl)amino)-5′-chloro-[2,4′-bipyridin]-6-yl)amino)methyl)tetrahydro-2H-pyran-4-carbonitrile]	> 1		> 0.01		
CCOC(=O)COC[C@@H](C)NC1CCC(Nc2cc(-c3cccc(NCC4(C#N)CCOCC4)n3)c(Cl)cn2)CC1 (stereo partly drawn) [Compound 5]	0.5 to 1		< 0.0025	< 0.1	< 0.1
COC[C@@H](C)NC1CCC(Nc2cc(-c3cccc(NCC4(C#N)CCOCC4)n3)c(Cl)cn2)CC1 (stereo partly drawn) [NVP-2, reference compound]			0.0025 to 0.005		
CCOC(=O)O[C@H](C)n1nnc(COC[C@H](C)N[C@H]2CC[C@H](Nc3cc(-c4cccc(NCC5(C#N)CCOCC5)n4)c(Cl)cn3)CC2)n1 [Compound 22, (R)-1-(5-(((S)-2-(((1r,4S)-4-((5′-chloro-6-(((4-cyanotetrahydro-2H-pyran-4-yl)methyl)amino)-[2,4′-bipyridin]-2′-yl)amino)cyclohexyl)amino)propoxy)methyl)-2H-tetrazol-2-yl)ethyl ethyl carbonate]	> 1	0.5 to 1	0.0025 to 0.005		
C[C@@H](COCc1nnnn1C)N[C@H]1CC[C@H](Nc2cc(-c3cccc(NCC4(C#N)CCOCC4)n3)c(Cl)cn2)CC1 [Compound 37, 4-(((5′-chloro-2′-(((1S,4r)-4-(((S)-1-((1-methyl-1H-tetrazol-5-yl)methoxy)propan-2-yl)amino)cyclohexyl)amino)-[2,4′-bipyridin]-6-yl)amino)methyl)tetrahydro-2H-pyran-4-carbonitrile]	0.1 to 0.5	0.1 to 0.5	< 0.0025		
CC(C)OC(=O)COC[C@H](C)N[C@H]1CC[C@H](Nc2cc(-c3cccc(NCC4(C#N)CCOCC4)n3)c(Cl)cn2)CC1 [Compound 16, isopropyl 2-((S)-2-(((1r,4S)-4-((5′-chloro-6-(((4-cyanotetrahydro-2H-pyran-4-yl)methyl)amino)-[2,4′-bipyridin]-2′-yl)amino)cyclohexyl)amino)propoxy)acetate]	0.1 to 0.5		0.005 to 0.01	< 0.1	< 0.1
C[C@@H](COCC(=O)OC(C)(C)C)N[C@H]1CC[C@H](Nc2cc(-c3cccc(NCC4(C#N)CCOCC4)n3)c(Cl)cn2)CC1 [Compound 19, tert-butyl 2-((S)-2-(((1r,4S)-4-((5′-chloro-6-(((4-cyanotetrahydro-2H-pyran-4-yl)methyl)amino)-[2,4′-bipyridin]-2′-yl)amino)cyclohexyl)amino)propoxy)acetate]	< 0.1		0.0025 to 0.005	< 0.1	< 0.1
CCOC(=O)O[C@H](C)n1nnnc1COC[C@H](C)N[C@H]1CC[C@H](Nc2cc(-c3cccc(NCC4(C#N)CCOCC4)n3)c(Cl)cn2)CC1 [Compound 28, (R)-1-(5-(((S)-2-(((1r,4S)-4-((5′-chloro-6-(((4-cyanotetrahydro-2H-pyran-4-yl)methyl)amino)-[2,4′-bipyridin]-2′-yl)amino)cyclohexyl)amino)propoxy)methyl)-1H-tetrazol-1-yl)ethyl ethyl carbonate]	> 1	> 1	> 0.01		
CC(C)OC(=O)COC[C@@H](C)N[C@H]1CC[C@H](Nc2cc(-c3cccc(NCC4(C#N)CCOCC4)n3)c(Cl)cn2)CC1 [Compound 15, isopropyl 2-((R)-2-(((1r,4R)-4-((5′-Chloro-6-(((4-Cyanotetrahydro-2H-pyran-4-yl)methyl)amino)-[2,4′-bipyridin]-2′-yl)amino)cyclohexyl)amino)propoxy)acetate]	< 0.1		0.0025 to 0.005	< 0.1	< 0.1
C[C@@H](COCc1nnn(C)n1)N[C@H]1CC[C@H](Nc2cc(-c3cccc(NCC4(C#N)CCOCC4)n3)c(Cl)cn2)CC1 [Compound 34, 4-(((5′-chloro-2′-(((1S,4r)-4-(((S)-1-((2-methyl-2H-tetrazol-5-yl)methoxy)propan-2-yl)amino)cyclohexyl)amino)-[2,4′-bipyridin]-6-yl)amino)methyl)tetrahydro-2H-pyran-4-carbonitrile]	< 0.1	0.1 to 0.5	> 0.01		
CCOC(=O)O[C@H](C)n1nnc(COC[C@@H](C)N[C@H]2CC[C@H](Nc3cc(-c4cccc(NCC5(C#N)CCOCC5)n4)c(Cl)cn3)CC2)n1 [Compound 21, (R)-1-(5-(((R)-2-(((1r,4R)-4-((5′-chloro-6-(((4-cyanotetrahydro-2H-pyran-4-yl)methyl)amino)-[2,4′-bipyridin]-2′-yl)amino)cyclohexyl)amino)propoxy)methyl)-2H-tetrazol-2-yl)ethyl ethyl carbonate]	> 1	0.5 to 1	< 0.0025		
CCOC(=O)O[C@@H](C)n1nnc(COC[C@H](C)N[C@H]2CC[C@H](Nc3cc(-c4cccc(NCC5(C#N)CCOCC5)n4)c(Cl)cn3)CC2)n1 [Compound 25, (S)-1-(5-(((S)-2-(((1r,4S)-4-((5′-chloro-6-(((4-cyanotetrahydro-2H-pyran-4-yl)methyl)amino)-[2,4′-bipyridin]-2′-yl)amino)cyclohexyl)amino)propoxy)methyl)-2H-tetrazol-2-yl)ethyl ethyl carbonate]	> 1	> 1	> 0.01		
C[C@H](Cc1nnn[nH]1)NC1CCC(Nc2cc(-c3cccc(NCC4(C#N)CCOCC4)n3)c(Cl)cn2)CC1 (stereo partly drawn) [Compound 12, 4-(((2′-(((1R,4R)-4-(((R)-1-(1H-tetrazol-5-yl)propan-2-yl)amino)cyclohexyl)amino)-5′-chloro-[2,4′-bipyridin]-6-yl)amino)methyl)tetrahydro-2H-pyran-4-carbonitrile]	> 1		> 0.01		
CC(COCCNS(=O)(=O)C(F)F)NC1CCC(Nc2cc(-c3cccc(NCC4(C#N)CCOCC4)n3)c(Cl)cn2)CC1 (stereo not drawn) [Compound 41, N-(2-(2-(((1r,4r)-4-((5′-chloro-6-(((4-cyanotetrahydro-2H-pyran-4-yl)methyl)amino)-[2,4′-bipyridin]-2′-yl)amino)cyclohexyl)amino)propoxy)ethyl)-1,1-difluoromethanesulfonamide]	< 0.1	0.1 to 0.5	0.005 to 0.01		
CCOC(=O)O[C@@H](C)n1nnc(COC[C@@H](C)N[C@H]2CC[C@H](Nc3cc(-c4cccc(NCC5(C#N)CCOCC5)n4)c(Cl)cn3)CC2)n1 [Compound 24, (S)-1-(5-(((R)-2-(((1r,4R)-4-((5′-chloro-6-(((4-cyanotetrahydro-2H-pyran-4-yl)methyl)amino)-[2,4′-bipyridin]-2′-yl)amino)cyclohexyl)amino)propoxy)methyl)-2H-tetrazol-2-yl)ethyl ethyl carbonate]	> 1	> 1	> 0.01		
CCOC(=O)O[C@@H](C)n1nnnc1COC[C@@H](C)N[C@H]1CC[C@H](Nc2cc(-c3cccc(NCC4(C#N)CCOCC4)n3)c(Cl)cn2)CC1 [Compound 30, (S)-1-(5-(((R)-2-(((1r,4R)-4-((5′-chloro-6-(((4-cyanotetrahydro-2H-pyran-4-yl)methyl)amino)-[2,4′-bipyridin]-2′-yl)amino)cyclohexyl)amino)propoxy)methyl)-1H-tetrazol-1-yl)ethyl ethyl carbonate]	0.5 to 1	> 1	< 0.0025		
C[C@H](COCc1nnnn1C)N[C@H]1CC[C@H](Nc2cc(-c3cccc(NCC4(C#N)CCOCC4)n3)c(Cl)cn2)CC1 [Compound 36, 4-(((5′-chloro-2′-(((1R,4r)-4-(((R)-1-((1-methyl-1H-tetrazol-5-yl)methoxy)propan-2-yl)amino)cyclohexyl)amino)-[2,4′-bipyridin]-6-yl)amino)methyl)tetrahydro-2H-pyran-4-carbonitrile]	0.1 to 0.5	0.5 to 1	< 0.0025		
CCOC(=O)O[C@H](C)n1nnnc1COC[C@@H](C)N[C@H]1CC[C@H](Nc2cc(-c3cccc(NCC4(C#N)CCOCC4)n3)c(Cl)cn2)CC1 [Compound 27, (R)-1-(5-(((R)-2-(((1r,4R)-4-((5′-chloro-6-(((4-cyanotetrahydro-2H-pyran-4-yl)methyl)amino)-[2,4′-bipyridin]-2′-yl)amino)cyclohexyl)amino)propoxy)methyl)-1H-tetrazol-1-yl)ethyl ethyl carbonate]	> 1	> 1	< 0.0025		
